Source: ChEMBL document CHEMBL3588800, “Novel Bioactive Hybrid Compound Dual Targeting Estrogen Receptor and Histone Deacetylase for the Treatment of Breast Cancer” (J Med Chem, 2015)

Legend:
[1] = molecular target: T1, Estrogen receptor beta (Homo sapiens, UniProt Q92731); assay: Antagonist activity at ER-beta (unknown origin) transfected in HEK293T cells assessed as inhibition of transcriptional activity after 24 hrs by luciferase reporter gene assay relative to 17-beta estradiol; assay type: cell-based; settings: HEK-293T
[2] = molecular target: T2, Estrogen receptor (Homo sapiens) (UniProt P03372); assay: Antagonist activity at ER-alpha (unknown origin) transfected in HEK293T cells assessed as inhibition of transcriptional activity after 24 hrs by luciferase reporter gene assay relative to 17-beta estradiol; assay type: cell-based; settings: HEK-293T
T2 sequence (whole entry): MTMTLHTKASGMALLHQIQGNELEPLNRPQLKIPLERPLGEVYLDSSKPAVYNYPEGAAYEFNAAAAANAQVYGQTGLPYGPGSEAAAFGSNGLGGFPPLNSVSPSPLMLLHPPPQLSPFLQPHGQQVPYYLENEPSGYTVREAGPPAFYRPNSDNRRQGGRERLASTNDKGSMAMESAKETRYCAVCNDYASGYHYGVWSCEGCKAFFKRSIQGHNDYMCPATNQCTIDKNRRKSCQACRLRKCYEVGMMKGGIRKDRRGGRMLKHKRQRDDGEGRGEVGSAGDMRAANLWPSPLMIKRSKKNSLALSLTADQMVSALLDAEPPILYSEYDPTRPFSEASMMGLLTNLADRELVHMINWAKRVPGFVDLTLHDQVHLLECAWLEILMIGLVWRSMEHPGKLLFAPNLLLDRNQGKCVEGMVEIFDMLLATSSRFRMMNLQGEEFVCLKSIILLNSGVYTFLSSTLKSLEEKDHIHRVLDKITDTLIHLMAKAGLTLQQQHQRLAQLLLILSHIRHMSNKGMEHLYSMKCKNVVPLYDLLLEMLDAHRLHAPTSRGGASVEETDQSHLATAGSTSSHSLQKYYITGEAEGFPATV

[3] = test system: Vero; assay: cells; assay type: ADME, cell-based; settings: Chlorocebus sabaeus, 72 h
[4] = test system: MCF7; assay: cells; assay type: functional, cell-based; settings: Homo sapiens, MCF7, 72 h
[5] = test system: DU-145; assay: cells; assay type: functional, cell-based; settings: Homo sapiens, DU-145, 72 h
[6] = molecular target: T1, Estrogen receptor beta; assay: Agonist activity at ER-beta (unknown origin) transfected in HEK293T cells assessed as stimulation of transcriptional activity after 24 hrs by luciferase reporter gene assay relative to 17-beta estradiol; assay type: cell-based; settings: HEK-293T
[7] = molecular target: T3, Estrogen receptor (Homo sapiens, UniProt P03372); assay: Agonist activity at ER-alpha (unknown origin) transfected in HEK293T cells assessed as stimulation of transcriptional activity after 24 hrs by luciferase reporter gene assay; assay type: cell-based, HEK-293T
T3 sequence (P03372 whole entry): T2 sequence (whole entry)

[8] = molecular target: T2, Estrogen receptor (Homo sapiens); assay: Agonist activity at ER-alpha (unknown origin) transfected in HEK293T cells assessed as stimulation of transcriptional activity after 24 hrs by luciferase reporter gene assay relative to 17-beta estradiol; assay type: cell-based; settings: HEK-293T
[9] = molecular target: Histone deacetylase 1 (Homo sapiens, UniProt Q13547); assay: Inhibition of human recombinant HDAC1 after 15 mins by fluorogenic assay
[10] = molecular target: T4, Protein deacetylase HDAC6 (Homo sapiens, UniProt Q9UBN7); assay: Inhibition of human recombinant HDAC6 after 15 mins by fluorogenic assay
T4 sequence (Q9UBN7 whole entry): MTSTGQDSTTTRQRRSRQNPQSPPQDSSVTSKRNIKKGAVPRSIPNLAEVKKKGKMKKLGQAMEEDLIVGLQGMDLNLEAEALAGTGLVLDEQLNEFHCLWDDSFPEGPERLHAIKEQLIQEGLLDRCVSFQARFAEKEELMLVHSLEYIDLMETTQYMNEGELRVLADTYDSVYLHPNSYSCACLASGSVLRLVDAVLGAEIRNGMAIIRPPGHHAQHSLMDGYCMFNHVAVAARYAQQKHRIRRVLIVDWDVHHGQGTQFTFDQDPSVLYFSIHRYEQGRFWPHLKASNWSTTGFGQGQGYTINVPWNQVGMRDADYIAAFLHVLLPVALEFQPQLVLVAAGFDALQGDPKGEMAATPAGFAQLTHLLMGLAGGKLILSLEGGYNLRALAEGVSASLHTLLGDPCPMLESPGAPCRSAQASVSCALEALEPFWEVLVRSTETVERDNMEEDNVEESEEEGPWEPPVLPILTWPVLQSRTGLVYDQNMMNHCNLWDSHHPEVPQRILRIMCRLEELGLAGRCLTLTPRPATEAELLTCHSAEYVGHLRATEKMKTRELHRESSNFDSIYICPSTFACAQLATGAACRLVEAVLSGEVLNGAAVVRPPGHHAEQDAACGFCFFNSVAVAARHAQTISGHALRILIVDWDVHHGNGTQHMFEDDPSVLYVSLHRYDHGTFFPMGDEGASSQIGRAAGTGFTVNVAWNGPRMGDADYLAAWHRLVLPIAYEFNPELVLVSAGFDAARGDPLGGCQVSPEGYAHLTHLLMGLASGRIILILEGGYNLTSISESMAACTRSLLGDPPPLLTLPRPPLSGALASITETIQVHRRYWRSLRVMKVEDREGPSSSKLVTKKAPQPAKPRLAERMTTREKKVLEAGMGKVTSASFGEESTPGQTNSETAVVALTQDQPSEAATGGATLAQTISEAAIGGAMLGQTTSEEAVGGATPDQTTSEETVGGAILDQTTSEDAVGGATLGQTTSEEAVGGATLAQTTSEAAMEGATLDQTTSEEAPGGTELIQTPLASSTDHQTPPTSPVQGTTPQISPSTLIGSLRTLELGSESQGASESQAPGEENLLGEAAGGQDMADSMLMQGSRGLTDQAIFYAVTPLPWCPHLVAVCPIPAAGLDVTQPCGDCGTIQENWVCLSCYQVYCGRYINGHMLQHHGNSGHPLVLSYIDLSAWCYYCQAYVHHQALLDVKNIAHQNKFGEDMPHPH

[11] = molecular target: T1, Estrogen receptor beta; assay: Agonist activity at ER-beta (unknown origin) transfected in HEK293T cells assessed as stimulation of transcriptional activity after 24 hrs by luciferase reporter gene assay; assay type: cell-based, HEK-293T
[12] = molecular target: T3, Estrogen receptor; assay: Antagonist activity at ER-alpha (unknown origin) transfected in HEK293T cells assessed as inhibition of transcriptional activity after 24 hrs by luciferase reporter gene assay; assay type: cell-based, HEK-293T
[13] = molecular target: T1, Estrogen receptor beta; assay: Binding affinity to human ER-beta ligand binding domain after 2 hrs by competitive fluorometric binding assay
[14] = molecular target: T3, Estrogen receptor; assay: Binding affinity to human ER-alpha ligand binding domain after 2 hrs by competitive fluorometric binding assay

T1 sequence (Q92731 whole entry): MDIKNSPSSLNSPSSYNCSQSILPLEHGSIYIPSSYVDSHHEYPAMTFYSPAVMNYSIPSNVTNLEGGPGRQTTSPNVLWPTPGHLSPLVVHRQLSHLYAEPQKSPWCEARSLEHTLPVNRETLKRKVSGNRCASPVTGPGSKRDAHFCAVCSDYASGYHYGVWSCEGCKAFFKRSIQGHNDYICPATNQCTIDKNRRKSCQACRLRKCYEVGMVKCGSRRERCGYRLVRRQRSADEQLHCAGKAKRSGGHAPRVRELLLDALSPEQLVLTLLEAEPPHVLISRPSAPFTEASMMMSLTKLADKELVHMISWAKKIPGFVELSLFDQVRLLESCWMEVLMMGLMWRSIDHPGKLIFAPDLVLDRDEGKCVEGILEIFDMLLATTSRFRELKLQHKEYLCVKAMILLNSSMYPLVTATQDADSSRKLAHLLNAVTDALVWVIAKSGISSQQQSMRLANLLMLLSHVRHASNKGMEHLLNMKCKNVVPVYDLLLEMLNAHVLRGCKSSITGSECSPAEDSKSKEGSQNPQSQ
Chain of Histone deacetylase 1 (Q13547 whole entry): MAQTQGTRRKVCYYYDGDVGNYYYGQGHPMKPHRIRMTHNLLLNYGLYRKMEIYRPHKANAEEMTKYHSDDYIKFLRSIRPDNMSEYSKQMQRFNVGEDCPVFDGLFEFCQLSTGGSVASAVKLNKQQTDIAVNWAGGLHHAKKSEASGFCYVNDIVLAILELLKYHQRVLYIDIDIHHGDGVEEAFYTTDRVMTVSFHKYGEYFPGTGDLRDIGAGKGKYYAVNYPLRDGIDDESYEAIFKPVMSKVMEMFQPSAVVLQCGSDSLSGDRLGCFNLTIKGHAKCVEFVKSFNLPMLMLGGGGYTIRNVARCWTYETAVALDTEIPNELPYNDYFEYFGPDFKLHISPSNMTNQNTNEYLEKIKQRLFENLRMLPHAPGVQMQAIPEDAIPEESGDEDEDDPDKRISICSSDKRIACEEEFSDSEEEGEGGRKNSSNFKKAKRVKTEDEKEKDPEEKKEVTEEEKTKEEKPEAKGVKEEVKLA

| Compound | Efficacy [1] | Efficacy [2] | IC50 [3] | IC50 [4] | IC50 [5] | Efficacy [6] | EC50 [7] | Efficacy [8] | IC50 [9] | IC50 [10] | EC50 [11] | IC50 ([9]; read-out: IC50) | IC50 [12] | IC50 ([10]; read-out: IC50) | Ki [13] | Ki [14] |
| --- | --- | --- | --- | --- | --- | --- | --- | --- | --- | --- | --- | --- | --- | --- | --- | --- |
| COC(=O)CCCCCCC(=O)Nc1cccc(OS(=O)(=O)C2CC3OC2C(c2ccc(O)cc2)=C3c2ccc(O)cc2)c1 (configuration not stated) | 91% | 111% | > 100 µM | 19.1 µM | 19.3 µM | 3% | 0.001 µM | 16% |  |  |  |  |  |  |  |  |
| O=C(O)CCCCCCC(=O)Nc1ccc(C2=C(c3ccc(O)cc3)C3CC(S(=O)(=O)Oc4cccc5ccccc45)C2O3)cc1 (configuration not stated) | 15% | 14% |  | 4.7 µM | 48.6 µM | -13% |  | 5% | Not Active | Not Active |  |  |  |  |  |  |
| O=C(O)CCCCCCC(=O)Nc1ccc(C2=C(c3ccc(O)cc3)C3CC(S(=O)(=O)Oc4ccc5ccccc5c4)C2O3)cc1 (configuration not stated) | 94% | 45% | > 100 µM | 18.9 µM | 58.3 µM | 19% |  | -21% |  |  | 0.53 µM | 0.282 µM | 0.92 µM | 8.11 µM |  |  |
| O=C(O)CCCCCCC(=O)Nc1ccc(C2=C(c3ccc(O)cc3)C3CC(S(=O)(=O)Oc4ccccc4)C2O3)cc1 (racemic) | 97% | 36% | > 100 µM | 66.4 µM | > 100 µM | 36% |  | -13% |  |  | 0.93 µM |  | 1.21 µM |  | 0.654 µM | 0.112 µM |
| Cc1ccc(OS(=O)(=O)C2CC3OC2C(c2ccc(NC(=O)CCCCCCC(=O)O)cc2)=C3c2ccc(O)cc2)cc1 (racemic) | 111% | 36% | > 100 µM | 60.5 µM | 80.8 µM | 8% |  | -6% |  |  | 0.52 µM |  | 1.08 µM |  | 0.0873 µM |  |
| Cc1cccc(OS(=O)(=O)C2CC3OC2C(c2ccc(NC(=O)CCCCCCC(=O)O)cc2)=C3c2ccc(O)cc2)c1 (racemic) | 87% | 43% |  | 3.8 µM | 52.4 µM | -11% |  | -28% |  | Not Active |  | 2.98 µM |  |  |  |  |
| COc1ccc(OS(=O)(=O)C2CC3OC2C(c2ccc(NC(=O)CCCCCCC(=O)O)cc2)=C3c2ccc(O)cc2)cc1 (racemic) | 137% | 40% | > 100 µM | 15.3 µM | 38.6 µM | 5% |  | 27% | Not Active |  |  |  | 116 µM | 4.17 µM |  |  |
| Cc1ccccc1OS(=O)(=O)C1CC2OC1C(c1ccc(NC(=O)CCCCCCC(=O)O)cc1)=C2c1ccc(O)cc1 (racemic) | 117% | 43% | > 100 µM | 7.9 µM | > 100 µM | 24% |  | -3% |  |  | 0.38 µM | 0.022 µM | 0.46 µM | 5.01 µM |  |  |
| O=C(O)CCCCCCC(=O)Nc1ccc(C2=C(c3ccc(O)cc3)C3CC(S(=O)(=O)Oc4cccc(O)c4)C2O3)cc1 (racemic) | 120% | 108% | > 100 µM | 3.6 µM | 23.8 µM | 105% | 3.69 µM | 77% | Not Active |  | 8.1 µM |  |  | 0.071 µM |  |  |
| O=C(O)CCCCCCC(=O)Nc1ccc(C2=C(c3ccc(O)cc3)C3CC(S(=O)(=O)Oc4ccccc4O)C2O3)cc1 (racemic) | 87% | 24% | > 100 µM | 27.9 µM | 27.7 µM | 37% |  | 12% |  |  |  |  | 0.14 µM |  |  |  |
| O=C(O)CCCCCCC(=O)Nc1ccc(C2=C(c3ccc(O)cc3)C3CC(S(=O)(=O)Oc4ccc(C(F)(F)F)cc4)C2O3)cc1 (racemic) | 136% | 10% | > 100 µM | 24 µM | 77 µM | -12% |  | -51% | Not Active |  |  |  | 0.79 µM | 0.648 µM |  |  |
| O=C(O)CCCCCCC(=O)Nc1ccc(C2=C(c3ccc(O)cc3)C3CC(S(=O)(=O)Oc4ccccc4C(F)(F)F)C2O3)cc1 (racemic) | 102% | 37% | > 100 µM | 26.1 µM | > 100 µM | 10% |  | 9% |  |  |  |  | 0.64 µM |  |  | 3.87 µM |
| Cc1cccc(C)c1OS(=O)(=O)C1CC2OC1C(c1ccc(NC(=O)CCCCCCC(=O)O)cc1)=C2c1ccc(O)cc1 (racemic) | 87% | 127% | > 100 µM | > 100 µM | > 100 µM | -8% | 0.32 µM | 61% |  |  |  |  |  |  | 0.971 µM | > 5 µM |
| O=C(CCCCCCC(=O)Nc1ccc(C2=C(c3ccc(O)cc3)C3CC(S(=O)(=O)Oc4ccc(Br)cc4)C2O3)cc1)NO (racemic) | 91% | 101% | > 100 µM | 17.1 µM | 11.3 µM | 21% | 1.14 µM | 33% | Not Active |  | 0.173 µM |  |  | 0.23 µM |  | > 5 µM |
| O=C(CCCCCCC(=O)Nc1ccc(C2=C(c3ccc(O)cc3)C3CC(S(=O)(=O)Oc4cccc5ccccc45)C2O3)cc1)NO (racemic) | 94% | 88% | > 100 µM | 13.4 µM | 8.57 µM | 36% |  | -22% | Not Active |  |  |  |  | 0.03 µM |  | > 5 µM |
| O=S(=O)(Oc1ccccc1)[C@H]1C[C@H]2O[C@@H]1C(c1ccc(O)cc1)=C2c1ccc(O)cc1 (relative stereo) |  |  | > 100 µM | 20.9 µM | > 100 µM |  |  |  | Not Active | Not Active |  |  |  |  |  |  |
